Key:
Mouse Asthma Model = test: Mouse asthma model (OVA/Alum sensitization, OVA inhalation, airway anaphylaxis and BALF eosinophils); type: in vivo, BLAB/c mouse; details: at a dose of not more than 150 mg/kg, topically or systemically; for accumulation of eosinophils to the lung: BALF on DAY-31; for progress of airway anaphylaxis: DAY-31
Procedure: A mixed solution containing aluminum hydroxide gel (Alum) on which ovalbumin (hereinafter "OVA") was adsorbed (20 ∝g OVA/2mg Alum/200 ∝l physiological saline) was intraperitoneally administered to each BLAB/c mouse (female, 7 weeks old, JAPAN CHARLES RIVER) at a dose of 200 ∝l ([…]) per time on DAY-1 and DAY-14 to sensitize the mouse. Then each mice was made to aspire 2% OVA dissolved in physiological saline on DAY-28, 29 and 30 to induce inflammation. Compound Nos. 143 and 236 used as the test compounds were dissolved in physiological saline and each solution was topically or systemically administered at 30 minutes before induction by OVA, and twice a day after induction.
On DAY-31, development of airway anaphylaxis was measured using a non-restrictive chamber (BUXCO). Then the bronchus of each mouse was incised and the bronchus and alveoli were washed (BAL) with 0.7 ml of physiological saline. After the washing, the washing fluid (BALF) of the bronchus and alveoli was recovered and centrifuged. The leukocytes contained in the BALF were subjected to site spin to prepare a smear specimen. After staining the specimen by May-Giemsa staining method, the leukocytes were grouped and counted under microscope to determine the number of eosinophils. The experiment was carried out using 6 to 8 mice in each group. The results are shown in terms of mean ± standard error.

[1] = target: VLA-4-IgG chimeric protein (Homo sapiens, UniProt P05556+P13612); test: Inhibition of binding between CS-1 peptide and VLA-4-IgG chimeric protein; details: binding of VLA-4-IgG chimeric protein to immobilized CS-1 peptide; compound preincubated 20 minutes; read-out: Inhibition Activity(IC50 : nM)
Sequence of VLA-4-IgG chimeric protein (P13612 with tags, fused parts or gaps limits assumed): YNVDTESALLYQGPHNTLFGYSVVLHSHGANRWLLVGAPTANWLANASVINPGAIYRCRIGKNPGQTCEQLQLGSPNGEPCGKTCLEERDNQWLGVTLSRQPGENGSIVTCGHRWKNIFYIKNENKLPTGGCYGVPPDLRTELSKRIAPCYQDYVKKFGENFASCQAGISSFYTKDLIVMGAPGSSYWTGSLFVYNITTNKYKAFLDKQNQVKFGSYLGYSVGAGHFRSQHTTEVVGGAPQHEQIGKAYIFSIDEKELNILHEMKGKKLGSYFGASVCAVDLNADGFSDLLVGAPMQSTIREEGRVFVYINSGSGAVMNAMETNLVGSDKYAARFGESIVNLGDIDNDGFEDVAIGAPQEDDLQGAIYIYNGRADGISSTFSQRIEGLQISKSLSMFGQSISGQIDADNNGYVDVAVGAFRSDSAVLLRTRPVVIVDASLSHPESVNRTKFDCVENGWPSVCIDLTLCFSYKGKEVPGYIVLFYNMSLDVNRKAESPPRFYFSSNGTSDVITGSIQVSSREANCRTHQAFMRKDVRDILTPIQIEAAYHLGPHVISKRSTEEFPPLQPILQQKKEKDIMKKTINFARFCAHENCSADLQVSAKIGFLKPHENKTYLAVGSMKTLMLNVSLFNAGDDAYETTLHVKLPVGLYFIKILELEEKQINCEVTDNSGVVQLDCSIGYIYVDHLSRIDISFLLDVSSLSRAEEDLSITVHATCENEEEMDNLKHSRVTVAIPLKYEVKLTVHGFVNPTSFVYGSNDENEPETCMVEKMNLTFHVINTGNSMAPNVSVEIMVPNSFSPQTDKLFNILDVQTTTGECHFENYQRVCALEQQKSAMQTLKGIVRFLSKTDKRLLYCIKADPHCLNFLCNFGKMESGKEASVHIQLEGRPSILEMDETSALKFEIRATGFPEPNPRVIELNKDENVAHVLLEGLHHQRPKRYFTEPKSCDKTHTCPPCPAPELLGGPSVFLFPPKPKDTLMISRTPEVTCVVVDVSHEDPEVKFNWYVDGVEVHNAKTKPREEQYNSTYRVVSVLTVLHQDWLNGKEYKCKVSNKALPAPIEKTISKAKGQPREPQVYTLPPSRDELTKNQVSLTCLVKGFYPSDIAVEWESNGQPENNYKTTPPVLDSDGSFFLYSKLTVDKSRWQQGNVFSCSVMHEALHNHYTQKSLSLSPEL
Sequence of VLA-4-IgG chimeric protein (P05556 with tags, fused parts or gaps limits assumed): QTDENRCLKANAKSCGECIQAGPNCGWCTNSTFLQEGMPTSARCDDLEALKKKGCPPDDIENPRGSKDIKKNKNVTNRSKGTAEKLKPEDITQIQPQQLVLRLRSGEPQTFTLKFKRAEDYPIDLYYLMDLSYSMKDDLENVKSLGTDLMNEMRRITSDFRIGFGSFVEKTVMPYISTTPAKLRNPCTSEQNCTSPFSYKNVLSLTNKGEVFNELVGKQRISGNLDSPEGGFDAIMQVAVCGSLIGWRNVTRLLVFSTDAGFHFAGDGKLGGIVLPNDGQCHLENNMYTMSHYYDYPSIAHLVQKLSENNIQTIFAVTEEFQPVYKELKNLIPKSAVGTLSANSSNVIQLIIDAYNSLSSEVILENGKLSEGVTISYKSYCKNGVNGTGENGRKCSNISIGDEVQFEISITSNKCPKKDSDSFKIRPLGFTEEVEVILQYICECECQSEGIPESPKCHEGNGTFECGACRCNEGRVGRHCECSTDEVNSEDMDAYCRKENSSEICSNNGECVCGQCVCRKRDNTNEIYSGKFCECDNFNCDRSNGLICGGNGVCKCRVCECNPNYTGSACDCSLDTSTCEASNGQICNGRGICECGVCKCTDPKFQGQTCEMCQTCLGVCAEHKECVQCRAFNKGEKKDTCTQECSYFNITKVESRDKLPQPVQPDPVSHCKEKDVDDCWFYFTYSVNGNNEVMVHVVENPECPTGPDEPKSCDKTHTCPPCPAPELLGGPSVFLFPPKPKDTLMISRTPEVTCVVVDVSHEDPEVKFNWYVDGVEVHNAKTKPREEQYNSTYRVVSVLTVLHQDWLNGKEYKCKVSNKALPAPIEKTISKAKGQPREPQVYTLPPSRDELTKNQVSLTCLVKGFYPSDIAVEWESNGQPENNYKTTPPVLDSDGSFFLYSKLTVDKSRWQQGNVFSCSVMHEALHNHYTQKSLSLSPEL
Procedure: The adhesion-inhibition activity of the compound of the present invention against VLA-4 may be examined by using an adhesion assay system in which the adhesion between VLA-4-expressing cells such as Ramos cells and Jurkat cells, and fibronectin or a fragment thereof, e.g., a peptide containing CS-1 sequence (Gly Pro Glu Ile Leu Asp Val Pro Ser Thr) (hereinafter referred to as "CS-1 peptide") immobilized on an immunoplate is measured. Alternatively, a binding assay system in which the binding of the VLA-4 protein to the fibronectin or a fragment thereof such as CS-1 peptide immobilized on an immunoplate is measured may be employed. In the present invention, the inhibition assay of the compound is preferably measured by a binding assay system which measures the binding between a chimeric protein of VLA-4 and immunoglobulin (VLA-4-IgG chimeric protein) and CS-1 peptide (Japanese patent application No. H9-234544), although the method of measuring the inhibition activity is not restricted to this method. The term "VLA-4-IgG chimeric protein" herein means the heterodimer composite molecule in which a chimeric protein between α4 of VLA-4 and immunoglobulin (hereinafter referred to as "VLAα4·IgG chimeric protein), and a chimeric protein between β1 of VLA-4 and immunoglobulin (hereinafter referred to as "VLAβ1·IgG chimeric protein) are associated. As the immunoglobulin, although heavy chain or light chain of IgG, IgM or the like may be employed, in the present invention, IgG1 heavy chain is used. When testing the inhibition activity of the compound, it is preferred to preliminarily mix the VLA-4-IgG chimeric protein and the test compound.
Effects of Compounds for Inhibition of Binding Between CS-1 Peptide and VLA-4-IgG
A conjugate between a peptide (Gys Leu His Gly Pro Glu Ile Leu Asp Val Pro Ser Thr) containing CS-1 sequence and rabbit IgG (Sigma) was prepared by the reported method (Humphries, M.J. et al. J. Biol.Chem., 262, 6886-6892 (1987)). The obtained conjugate was diluted with phosphate buffer (hereinafter referred to as "PBS(-)", NISSUI) and the resulting solution was placed in wells of a 96-well immunoplate (NUNC) in an amount of 100 µl/well, followed by leaving the solution to stand at 4°C for 16 hours to immobilize the conjugate.
Then each well was washed twice with PBS(-), and a PBS solution containing 1% BSA heat-treated at 80°C for 10 minutes was placed in each well in an amount of 300 µl/well. The immunoplate was left to stand at 4°C for 3 hours, and then the solution in each well was removed by aspiration.
After preliminarily allowing each compound to react with VLA-4-IgG chimeric protein (100 µl) at room temperature for 20 minutes, the resulting solution was allowed to react with CS-1 peptide in each well at 30°C for 3 hours. Thereafter, non-bound VLA-4-IgG chimeric protein was removed by aspiration and each well was washed twice with 0.1% BSA-containing TBS buffer (150 mM NaCl,25 mM Tris-HCI, 1 mM MnCl2 pH 7.4). To the bound VLA-4-IgG chimeric protein, biotin-labeled anti-human IgG antibody (Vector) as an primary antibody was added, and then avidin-labeled horse radish peroxidase (Sigma) as a secondary antibody was added, and the reaction was allowed to occur. After the reaction, o-phenylenediamine as a substrate was added to color the solution, and the absorbance at 490 nm was measured. From the absorbance, the binding-inhibition activity of each test compound was determined.

Auricular Edema Model = test: Auricular edema model (IgE anti-DNP passive sensitization, DNFB induction); type: in vivo, BLAB/c mouse; details: at a dose of not more than 150 mg/kg; topically or systemically, totally 3 times
Procedure: To each BLAB/c mouse (female, 7 weeks old, JAPAN CHARLES RIVER), mouse IgE anti-DNP antibody (5 mg/kg, SEIKAGAKU CORPORATION) was intravenously administered to passively sensitize the mouse. Twenty four hours later, 20 µl of 0.38% 2,4- dinitrofluorobenzene (DNFB, Aldrich) dissolved in acetone:olive oil (4:1) was applied to the auricle of the sensitized mouse to induce inflammation. The thickness of the auricle was measured until 24 hours after the induction with Digimatic Indicator (Mitutoyo) and the ear swelling rate was calculated according to the following equation: Ear Swelling Rate (%) = (A - B)/B x 100 [formula] • A: Thickness of right auricle at 24 hours after induction • B: Thickness of right auricle before induction
Twenty four hours after the induction, the auricle was cut off and fixed with formalin. After the fixation, continuous sections of the auricle were prepared and stained by Luna staining. The number of eosinophils in each section was counted and the total of them was defined as the number of eosinophils accumulated in the auricle.
Compound No. 140 used as the test compound was dissolved in physiological saline and the solution was intravenously administered totally 3 times, i.e., at the time of sensitization, at 8 hours and 24 hours after sensitization, at a dose of 400 mg/kg per each time. Further, to examine the effect of the compound when applied to the auricle, the compound was dissolved in ethanol, and the solution was applied to the auricle totally twice, i.e., at 8 hours after sensitization and at 1 hour before the induction, at a dose of 0.3 mg/ear. To the background group and the control group, physiological saline was intravenously administered and ethanol was applied, respectively. The experiment was carried out using 4 to 6 mice in each group. The results are shown in terms of mean ± standard error.
Twenty four hours after the induction, the auricle was cut off and fixed with formalin. After the fixation, continuous sections of the auricle were prepared and stained by Luna staining. The number of eosinophils in each section was counted. Compound No. 143 used as the test compound was dissolved in physiological saline and the solution was topically or systemically administered totally 3 times, i.e., at the time of sensitization, at 8 hours and 24 hours after sensitization. The experiment was carried out using 4 to 6 mice in each group. The results are shown in terms of mean ± standard error.

superoxide = test: Radical scavenger action (superoxide from xanthine and xanthine oxidase); type: biochemical; details: luminescence at 380 nm, 10 to 60 seconds after xanthine oxidase addition
Procedure: The radical scavenger action of the compounds was measured using the amount of the superoxide as an index, which is produced when xanthine and xanthine oxidase are reacted. First, 1 mM of xanthine (SIGMA) dissolved in Hanks buffer solution (GIBCO), 2 mM dietylenetriamine-N,N,N',N"-pentaacetic acid (DOJIN) and 40 µM 2-methyl-6-phenyl-3,7-dihydroimidazo[1,2-a]pyrazin-3-one (TOKYO KASEI KOGYO) dissolved in distilled water when use were mixed. Further, 0.3 U/ml xanthine oxidase (BMY) dissolved in Hanks buffer when use was added. Luminescence intensity at 380 nm from 10 seconds to 60 seconds after the addition was measured by Lumat (Berthold, LB9501), and the measured amount was defined as the amount of produced superoxide. The test compound was added to the xanthine-containing solution before addition of the xanthine oxidase, and the resulting mixture was preincubated at 25°C for 5 minutes to examine its influence.

[2] = tested on: Jurkat cells (ATCC TIB-152); test: Influence on cell survival rate (alamarBlue); type: cell-based; details: cultured 24 hours with compound
Procedure: Jurkat cells (ATCC TIB-152) passaged on 10% fetal calf serum-containing RPMI medium (10F-RPMI, GIBCO) were suspended in the same medium to a cell population of 5 x 10^5 cells/ml, and the suspension was placed in each well of a 96-well plate (COSTAR) in an amount of 100 µl/well, followed by culturing the cells at 37°C under 5% CO2 for 24 hours. Then alamarBlue®(BioSource) was added in an amount of 10 µl/well and the cells were cultured for another 4 hours. Thereafter, the absorbance at 570 nm and 600 nm was measured with a microplate reader (BioRad model 3550). The test compound dissolved in 10F-RPMI was mixed with the Jurkat cells and the cells were cultured for 24 hours to examine its influence.

| Structure (SMILES) | accumulation of eosinophils to the lung (Mouse Asthma Model) | progress of airway anaphylaxis (Mouse Asthma Model) | IC50 [1] [nM] | accumulation of eosinophils to auricle induced by application of the antigen (Auricular Edema Model) | swelling of ear induced by application of the antigen (Auricular Edema Model) | radical scavenger activities relative to 3-(4-((2,6-dichlorophenyl)carbonylamino)phenyl)-2-((6-bromo-2-methylphenyl)carbonylamino)propanoic acid (superoxide) [times] | influences on the survival rate of the cells relative to 3-(4-((2,6-dichlorophenyl)carbonylamino)phenyl)-2-((6-bromo-2-methylphenyl)carbonylamino)propanoic acid [2] |
| --- | --- | --- | --- | --- | --- | --- | --- |
| COc1cccc(OC)c1C(=O)NCCCC(NC(=O)c1c(Cl)cccc1Cl)C(=O)O (centres unmarked) [Example 143, 2-((2,6-dichlorophenyl)carbonylamino)-5-((2,6-dimethoxyphenyl)carbonylamino)pentanoic acid] | inhibited | inhibited | 13 | inhibited | inhibited |  |  |
| O=C(Nc1ccn(C[C@H](NC(=O)c2c(Cl)cccc2Cl)C(=O)O)c(=O)n1)c1c(Cl)cccc1Cl [Example 236, (2S)-2-((2,6-dichlorophenyl)carbonylamino)-3-(4-((2,6-dichlorophenyl)carbonylamino)-2-oxohydropyrimidinyl)propionic acid] | inhibited | inhibited |  |  |  | 2 to 5 | not more than 1/4 |
| Cc1cccc(Br)c1C(=O)N[C@@H](Cn1ccc(NC(=O)c2c(Cl)cccc2Cl)nc1=O)C(=O)O [Example 240, (2S)-3-(4-((2,6-dichlorophenyl)carbonylamino)-2-oxohydropyrimidinyl)-2-((2-bromo-6-methylphenyl)carbonylamino)propionic acid] |  |  |  |  |  | 2 to 5 | not more than 1/4 |

Source: EP1209147A1, “CARBOXYLIC ACID DERIVATIVES AND ADHESION MOLECULE INHIBITORS CONTAINING THE SAME AS THE ACTIVE INGREDIENT” (TORAY INDUSTRIES, INC., priority 1999, dated 2001)
